Reference: patent EP4682144A1, “SOLID FORM OF PYRROLIDONE DERIVATIVE AS GLUCOKINASE ACTIVATOR” (Hua Medicine (Shanghai) Ltd., priority 2023, dated 2024)
≈ marks a conversion by molar mass, not a printed value. Where a name gives a salt, the structure may show the parent alone.

How the values were obtained:
[1] = Simulated metabolic test in human intestine S9; assay type: in vitro ADME
Procedure: Preparation of phosphate buffer (PB): 73.21 g of K2HPO4·3H2O (AR grade) and 10.78 g of KH2PO4 (AR grade) were dissolved in ultra-pure water to obtain a final volume of 4000 mL and a final concentration of 100 mM. The pH of the final test solution was adjusted to 7.40±0.10 with H3PO4/KOH.
An Apricot automation workstation was used to add 50 µL/well of HIS9 solution to the corresponding wells of all reaction plates (blank, T0, T5, T15, T30, T45, T60).
An Apricot automation workstation was used to add 48 µL/well of PB to the corresponding wells of every reaction plate (blank, T0, T5, T15, T30, T45, T60) to start the reaction.
The reaction plates were incubated at 37 °C, and timer was started. An Apricot automation workstation was used to add 300 µL/well of stop solution (cold acetonitrile containing 200 ng/mL tolbutamide (internal standard)) to the corresponding wells of each reaction plate at the appropriate end time point to stop the reaction.
Each plate was sealed and shaken for 10 minutes. Each plate was centrifuged at 4000 rpm and 4 °C for 20 minutes. After centrifugation, 100 µL of supernatant was transferred from each reaction plate to the corresponding analysis plate, and mixed well with 300 µL of ultra-pure water.

Caco-2 cells = assay: Caco-2 bi-directional permeability test; settings: Caco-2
Procedure: (§3) Caco-2 cell culture: Caco-2 cells (purchased from American Type Culture Collection, ATCC) were inoculated on polyethylene film (PET) of a 96-well culture plate at a concentration of 1x10^5 cells/cm^2. The culture medium was replaced every 4 days until cell confluency to form cell monolayer on day 21 or 28.
(§4) Transport test: Transport buffer used in the test was Hanks' Balanced Salt Solution (HBSS) containing 10 mM 2-[4-(2-hydroxyethyl)-1-piperazinyl] ethanesulfonic acid (HEPES) with a pH of 7.40 ± 0.05. In vitro permeability studies were performed with Nadolol, Metoprolol and Digoxin as model permeants. […] Digoxin was assessed bi-directionally with a test concentration of 10.0µM (n=2). Nadolol and Metoprolol were assessed unidirectionally both with a test concentration of 2.00 µM (n=2). The final concentration of DMSO in the incubation system was adjusted to <1%.

[2] = Caco-2 bi-directional permeability test; settings: human; for recovery at 2 h, 2 µM: Compound A concentration 2.00 µM; for recovery at 2 h, 10 µM: Compound A concentration 10.0 µM
Procedure: as §3, §4

[3] = Preliminary solubility test in solvents at room temperature; assay type: physicochemical
Procedure: Table 10 Solubility range of the starting material sample at room temperature
The solubility range in the corresponding solvent was calculated based on the mass of the sample and the volume of the added solvent, as shown in Table 28. The data were used as a base to guide the selection of solvent in screening tests. Table 28 Preliminary solubility of crystal form A of the free state at room temperature
The solubility range in the corresponding solvent was calculated based on the mass of the sample and the volume of the added solvent, as shown in Table 35. The data were used as a base to guide the selection of solvent in the screening tests.

[4] = Pharmacokinetic study in rats (IV and PO); assay type: in vivo, SD male rats
Procedure: Each group was divided into 2 subgroups (intravenous bolus group (IV) and gavage group (PO)).
Whole blood samples (about 0.2 mL per time point) were collected at pre-dose (0), 0.083, 0.25, 0.5, 1, 2, 4, 8, 12, and 24 hours post-dose by jugular vein puncture. All the blood samples were immediately transferred into labeled pre-chilled commercial microcentrifuge tubes containing 4 µL of 0.5M K2-EDTA and 10 µL of cocktail stabilizer. Samples were placed on wet ice until centrifugation (within 30 min). Plasma samples were then prepared by centrifuging the blood samples at approximately 4 °C, 3200xg for 10 minutes. Supernatant plasma was pipetted, then quickly frozen over dry ice, and then kept at -60 °C or lower temperature until LC-MS/MS analysis.
The plasma concentrations were subjected to a non-compartmental pharmacokinetic analysis by using the WinNonlin™ software program (version 6.3).

C57BL/6J mice [5] = assay: Oral glucose tolerance test (OGTT), glucose-lowering effect; assay type: in vivo; settings: for blood glucose level at 0 min (pre-glucose): oral, 1 hour after administration, dose-response relationship; for blood glucose values after glucose administration: 60 min, and 120 min
Procedure: (§1) There were 7 groups of mice, with 8 mice in each group. […] Oral glucose tolerance test (OGTT) was performed 1 hour after administration. The blood glucose level in mice was tested before administration (-60 min), before sugar administration (0 min), and at 15 min, 30 min, 60 min, and 120 min after sugar administration. In addition, 40 µl of blood was collected from the tail tip before sugar administration (0 min) and at 15 min after sugar administration to collect the plasma for an insulin level test.
(§2) All data was transferred into an Excel document. The blood glucose results were expressed in mg/dL and expressed as MEAN ± SEM. Differences between multiple groups were analyzed using Dunnett's method in one-way analysis of variance (ANOVA) or two-way analysis of variance (ANOVA) with Graphpad Prism 8 software for comparison, and the differences were considered statistically significant when the P value was less than 0.05.

C57BL/6J mice [6] = assay: Plasma insulin level test during OGTT; assay type: in vivo
Procedure: as §1, §2

[7] = Dynamic vapour sorption (DVS) test; assay type: physicochemical; settings: relative humidity of less than or equal to 90%; listed as crystal form B of the hydrochloride
Procedure: A certain amount of powder was taken and put into a sample pan, and hygroscopicity of the sample was evaluated with DVS according to the following instrument method:

[8] = High-temperature and high-humidity stability test of hydrochloride crystal form B; assay type: physicochemical
[9] = Caco-2, pH 7.4, Average recovery rate (%) A→B
[10] = Caco-2, pH 7.4, Average recovery rate (%) B→A
[11] = acetone, 25 °C, organic solvent or mixture, thermodynamic from solid, room temperature
[12] = chcl3, 25 °C, organic solvent or mixture, thermodynamic from solid, CHCl3, room temperature
[13] = C57BL/6J mice, versus vehicle control group

CC(C)C[C@@H](C(=O)Nc1ccn(C[C@@H](O)COC(=O)c2cccnc2)n1)N1CC(Oc2ccccc2Cl)=CC1=O [Compound A, (R)-3-(3-((S)-2-(4-(2-chlorophenoxy)-2-oxo-2,5-dihydro-1H-pyrrol-1-yl)-4-methylpentanamido)-1H-pyrazol-1-yl)-2-hydroxypropyl nicotinate]
time until completely metabolized and converted into the parent drug HMS5552 [1]: ≤ 5 min | permeability from A side to B side (Caco-2 cells): low | permeability from B side to A side (Caco-2 cells): high | recovery at 2 h, 2 µM [2, 9]: 52.9% | recovery at 2 h, 10 µM [2, 9]: 37.5% | recovery at 2 h, 2 µM [2, 10]: 87.1% | recovery at 2 h, 10 µM [2, 10]: 81.6% | recovery at 2 h, 30 µM ([2]; Caco-2, pH 7.4, Average recovery rate (%) B→A, Compound A concentration 30.0 µM): 82.2% | Solubility (mg/mL) ([3]; 1,4-Dioxane, room temperature): S>42.0 mg/mL | Solubility (mg/mL) ([3]; 2-MeTHF, room temperature): S>42.0 mg/mL | solubility ([3]; 2-MeTHF/n-Heptane (1:4) v/v, 25 °C, organic solvent or mixture, thermodynamic from solid, 2-MeTHF/n-Heptane (1:4) v/v, room temperature): < 1000 µg/mL | Solubility (mg/mL) ([3]; ACN, room temperature): S>50.0 mg/mL | solubility ([3]; Cyclohexane, 25 °C, organic solvent or mixture, thermodynamic from solid, room temperature): < 1100 µg/mL | solubility ([3]; DCM, 25 °C, organic solvent or mixture, thermodynamic from solid, room temperature): > 44000 µg/mL | solubility ([3]; DMAc, 25 °C, organic solvent or mixture, thermodynamic from solid, room temperature): > 42000 µg/mL | solubility ([3]; DMSO, 25 °C, organic solvent or mixture, thermodynamic from solid, room temperature): > 44000 µg/mL | Solubility (mg/mL) ([3]; EtOAc, room temperature): S>48.0 mg/mL | solubility ([3]; EtOAc/n-heptane (1:4 v/v), 25 °C, organic solvent or mixture, thermodynamic from solid, EtOAc/n-Heptane (1:4) v/v, room temperature): < 1100 µg/mL | Solubility (mg/mL) ([3]; EtOH, room temperature): S>46.0 mg/mL | solubility ([3]; EtOH/H2O (1:2) v/v, 25 °C, aqueous with cosolvent or surfactant or cyclodextrin, thermodynamic from solid, EtOH/H2O (1:2) v/v, room temperature): 2100 to 5300 µg/mL (≈ 3.7 to 9.33 mM) | solubility ([3]; H2O, 25 °C, water, thermodynamic from solid, room temperature): < 1100 µg/mL | Solubility (mg/mL) ([3]; IPA, room temperature): S>38.0 mg/mL | Solubility (mg/mL) ([3]; IPAc, room temperature): S>44.0 mg/mL | Solubility (mg/mL) ([3]; MIBK, room temperature): S>40.0 mg/mL | solubility ([3]; MeOH, 25 °C, organic solvent or mixture, thermodynamic from solid, room temperature (25±3 °C)): > 50000 µg/mL | solubility ([3]; NMP, 25 °C, organic solvent or mixture, thermodynamic from solid, room temperature): > 44000 µg/mL | solubility ([3]; THF, 25 °C, organic solvent or mixture, thermodynamic from solid, room temperature): > 40000 µg/mL | solubility ([3]; Toluene/n-Heptane (1:1) v/v, 25 °C, organic solvent or mixture, thermodynamic from solid, Toluene/n-Heptane (1:1) v/v, room temperature): 1000 to 2000 µg/mL (≈ 1.76 to 3.52 mM) | solubility [3, 11]: > 46000 µg/mL | solubility ([3]; acetone/H2O (1:2 v/v), 25 °C, aqueous with cosolvent or surfactant or cyclodextrin, thermodynamic from solid, Acetone/H2O (1:2) v/v, room temperature): 5300 to 10500 µg/mL (≈ 9.33 to 18.5 mM) | solubility [3, 12]: > 48000 µg/mL | solubility ([3]; n-Heptane, 25 °C, organic solvent or mixture, thermodynamic from solid, room temperature): < 1100 µg/mL | metabolism in rats by intravenous injection ([4]; rats, intravenous injection): metabolized very rapidly | glucose-lowering effect in mice (C57BL/6J mice [5]; C57BL/6J mice, OGTT): good glucose-lowering effect | blood glucose level at 0 min (pre-glucose) (C57BL/6J mice [5]; [13]): generally lower than that of the vehicle control group | blood glucose values after glucose administration (C57BL/6J mice [5]; compound A-49.1 mg/kg group, at 15 min, 30 min, versus vehicle control group): significantly lower than that of the vehicle control group | blood glucose values after glucose administration (C57BL/6J mice [5]; compound A-49.1 mg/kg group, at 30 min, versus HMS5552-40mg/kg group): significantly lower than that of the HMS5552-40mg/kg group | AUC0-120min of OGTT blood glucose (C57BL/6J mice [5]; medium and high dose groups of compound A versus corresponding dose groups of HMS5552): significantly lower than those of the corresponding dose groups of HMS5552 | insulin level at 0 min (C57BL/6J mice [6]; compound A high-dose group): significantly higher than that of the vehicle control group and the HMS5552 high-dose group | insulin level at 15 min (C57BL/6J mice [6]; compound A-18.4mg/kg group versus corresponding dose group of HMS5552): significantly higher than that of the corresponding dose group of HMS5552 | insulin level at 15 min (C57BL/6J mice [6]; compound A-18.4mg/kg group versus vehicle control group): significantly higher than that of the vehicle control group | insulin level at 15 min (C57BL/6J mice [6]; compound A-49.1mg/kg group versus vehicle control group): significantly higher than that of the vehicle control group

CC(C)C[C@@H](C(=O)Nc1ccn(C[C@@H](O)CO)n1)N1CC(Oc2ccccc2Cl)=CC1=O [HMS5552, (S)-2-(4-(2-chlorophenoxy)-2-oxo-2,5-dihydro-1H-pyrrol-1-yl)-N-(1-((R)-2,3-dihydroxypropyl)-1H-pyrazol-3-yl)-4-methylpentanamide, reference compound]
bioavailability ([4]; Sprague-Dawley, rat, plasma, 30 mg/kg, SD male rats, PO, analyte parent drug HMS5552): 51.2% | blood glucose level at 0 min (pre-glucose) (C57BL/6J mice [5]; [13]): generally lower than that of the vehicle control group | blood glucose values after glucose administration (C57BL/6J mice [5]; HMS5552-40mg/kg group, at 30 min, versus vehicle control group): significantly lower than that of the vehicle control group | insulin levels at 0 min and 15 min (C57BL/6J mice [6]; each dose group of HMS5552 versus vehicle control group): slightly higher than those in the vehicle control group, without significant difference

CC(C)C[C@@H](C(=O)Nc1ccn(C[C@@H](O)COC(=O)c2cccnc2)n1)N1CC(Oc2ccccc2Cl)=CC1=O [Hydrochloride crystal form B]
Solubility (mg/mL) ([3]; 1,4-Dioxane, room temperature, listed as crystal form B of the hydrochloride): S<1.0 mg/mL | solubility ([3]; 2-methf, 25 °C, organic solvent or mixture, thermodynamic from solid, room temperature): < 1000 µg/mL | Solubility (mg/mL) ([3]; DMAc, room temperature, listed as crystal form B of the hydrochloride): S>40.0 mg/mL | Solubility (mg/mL) ([3]; DMSO, room temperature, listed as crystal form B of the hydrochloride): S>42.0 mg/mL | Solubility (mg/mL) ([3]; H2O, room temperature, listed as crystal form B of the hydrochloride): S<1.0 mg/mL | Solubility (mg/mL) ([3]; MTBE, room temperature, listed as crystal form B of the hydrochloride): S<1.0 mg/mL | Solubility (mg/mL) ([3]; MeOH, room temperature (25±3 °C), listed as crystal form B of the hydrochloride): S>36.0 mg/mL | Solubility (mg/mL) ([3]; NMP, room temperature, listed as crystal form B of the hydrochloride): S>42.0 mg/mL | Solubility (mg/mL) ([3]; Toluene, room temperature, listed as crystal form B of the hydrochloride): S<1.0 mg/mL | solubility [3, 11]: < 1000 µg/mL | solubility ([3]; acn, 25 °C, organic solvent or mixture, thermodynamic from solid, room temperature): < 1100 µg/mL | solubility ([3]; acn/h2o (1:1) v/v, room temperature): > 40000 µg/mL | solubility [3, 12]: < 1100 µg/mL | solubility ([3]; dcm, 25 °C, organic solvent or mixture, thermodynamic from solid, room temperature): < 1000 µg/mL | solubility ([3]; dmf/h2o (1:1) v/v, room temperature): 22000 to 44000 µg/mL | solubility ([3]; etoac, 25 °C, organic solvent or mixture, thermodynamic from solid, room temperature): < 1000 µg/mL | solubility ([3]; etoh/h2o (1:1) v/v, room temperature): 22000 to 44000 µg/mL | solubility ([3]; ipa, 25 °C, organic solvent or mixture, thermodynamic from solid, room temperature): < 1100 µg/mL | solubility ([3]; ipa/h2o (1:1) v/v, room temperature): > 40000 µg/mL | solubility ([3]; ipac, 25 °C, organic solvent or mixture, thermodynamic from solid, room temperature): < 1000 µg/mL | solubility ([3]; meoh/h2o (1:1) v/v, room temperature): 11000 to 22000 µg/mL | solubility ([3]; mibk, 25 °C, organic solvent or mixture, thermodynamic from solid, room temperature): < 1000 µg/mL | Solubility (mg/mL) ([3]; n-Heptane, room temperature, listed as crystal form B of the hydrochloride): S<1.0 mg/mL | solubility ([3]; thf, 25 °C, organic solvent or mixture, thermodynamic from solid, room temperature): < 1100 µg/mL | solubility ([3]; thf/h2o (1:1) v/v, room temperature): 20000 to 40000 µg/mL | moisture-induced weight gain [7]: less than 0.7% | Purity (Area%) ([8]; 25 °C/75%RH, Day 2): 99.72 Area% | Purity (Area%) ([8]; 25 °C/75%RH, Day 5): 99.56 Area% | Purity (Area%) ([8]; 25 °C/75%RH, Day 9): 99.64 Area% | Purity (Area%) ([8]; 40°C/75%RH, Day 2): 99.67 Area% | Purity (Area%) ([8]; 40°C/75%RH, Day 5): 99.38 Area% | Purity (Area%) ([8]; 40°C/75%RH, Day 9): 99.33 Area% | Purity (Area%) ([8]; 60°C, Day 2): 99.55 Area% | Purity (Area%) ([8]; 60°C, Day 5): 99.43 Area% | Purity (Area%) ([8]; 60°C, Day 9): 99.55 Area% | Purity (Area%) ([8]; 80°C, Day 2): 95.20 Area% | Purity (Area%) ([8]; 80°C, Day 5): 94.65 Area% | Purity (Area%) ([8]; 80°C, Day 9): 96.80 Area% | Purity (Area%) ([8]; Starting point (table 25 °C/75%RH / 40°C/75%RH)): 99.72 Area% | Purity (Area%) ([8]; Starting point (table 60°C / 80°C)): 99.72 Area% | stability under the high-temperature and high-humidity conditions ([8]; compared with crystal form A of the free state): not as stable as crystal form A of the free state
